Assay results taken from patent US4018895A, “Aryloxyphenylpropylamines in treating depression” (Eli Lilly and Company, priority 1975, dated 1977).
Read-outs that look alike come from different tables or passages of the source.

Assays:
[1] = tested on: serotonin uptake by synaptosomes from rat brain; test: In vitro blockade of serotonin uptake by synaptosomes from rat brain; assay type: biochemical; details: serotonin 0.1 μM
Text: (§1) This blockade is shown both in vitro with radioactive labelled compounds to determine the amount of monoamine uptake by synaptosomes from rat brain, and in vivo by a variety of methods. Among the physiologically active monoamines whose uptake is blocked by the compounds of this invention are included serotonin, norepinephrine and dopamine (3,4-dihydroxyphenylethylamine). […] Tables 1 and 2 which follow set forth the results of some of the in vitro determinations of the blockage of monoamine uptake by the compounds of this invention. In the tables, column 1 gives the R substituent on the 3-phenylpropylamine and columns 2-4, the concentration in micrograms per ml. that blocks the uptake of a particular amine by 50 percent for the amines--norephinephrine, serotonin, and dopamine. At the head of each column is given the concentration of the particular monoamine used in the experiment.

[2] = tested on: hypothermia induced by the injection of apomorphine; test: Apomorphine hypothermia antagonism test; assay type: in vivo, mice; details: for Activity in antagonism of apomorphine hypothermia: in words
Method: The apomorphine hypothermia antagonism test is carried out as follows: mice are injected with a dose of apomorphine known to reduce body temperature approximately 4° C. […] The degree of antagonism is expressed as a percent reduction (as compared with controls) of the temperature decrease produced by the injection of the apomorphine. The reserpine hypothermia reversal test is carried out as follows: groups of mice are injected with reserpine and 16.5 hours later are injected intraperitoneally with graded doses of the drug, a different dose level being given to each group of mice. Temperatures are measured at 1 hour after injection of the drug under test and again the effectiveness of the drug is expressed as a percentage decrease in the hypothermia induced by the injection of reserpine as compared with the control group. In the tablets which follow, Table 4 gives the results in the apomorphine antagonism and reserpine reversal hypothermia tests for the secondary amines of this invention. In the table, the first column gives the substituent attached to the oxygen atom at the 3 position of the propylamine chain; columns 2 to 4 the percent antagonism against apomorphine hypothermia at dose levels of 0.3, 1 and 3 mg./kg. and columns 5-7 the percent reversal of reserpine hypothermia at the same dose levels.

[3] = tested on: dopamine uptake by synaptosomes from rat brain; test: In vitro blockade of dopamine uptake by synaptosomes from rat brain; assay type: biochemical; details: dopamine 0.2 μM
Text: as §1

[4] = tested on: hypothermia induced by the injection of reserpine; test: Reserpine hypothermia reversal test; assay type: in vivo, mice; details: for inhibition in vivo at 1 mg/kg / inhibition in vivo at 3 mg/kg / inhibition in vivo at 0.3 mg/kg / inhibition in vivo at 10 mg/kg: Mus musculus, ip, 1 h, Post-60 min., mice, read-out: Percent Antagonism Reserpine; for inhibition in vivo at 1 mg/kg: 1 mg./kg. intraperitoneally; for inhibition in vivo at 3 mg/kg: 3 mg./kg. intraperitoneally; for inhibition in vivo at 0.3 mg/kg: .3 mg./kg. intraperitoneally; for inhibition in vivo at 10 mg/kg: 10 mg./kg. intraperitoneally; for Activity in reversal of reserpine hypothermia: in words
Method: The apomorphine hypothermia antagonism test is carried out as follows: mice are injected with a dose of apomorphine known to reduce body temperature approximately 4° C. The compound under test is injected 1/2 hour before the injection of the apomorphine and the temperatures measured 1/2 hour after injection. The degree of antagonism is expressed as a percent reduction (as compared with controls) of the temperature decrease produced by the injection of the apomorphine. The reserpine hypothermia reversal test is carried out as follows: groups of mice are injected with reserpine and 16.5 hours later are injected intraperitoneally with graded doses of the drug, a different dose level being given to each group of mice. Temperatures are measured at 1 hour after injection of the drug under test and again the effectiveness of the drug is expressed as a percentage decrease in the hypothermia induced by the injection of reserpine as compared with the control group. In the tablets which follow, Table 4 gives the results in the apomorphine antagonism and reserpine reversal hypothermia tests for the secondary amines of this invention. In the table, the first column gives the substituent attached to the oxygen atom at the 3 position of the propylamine chain; columns 2 to 4 the percent antagonism against apomorphine hypothermia at dose levels of 0.3, 1 and 3 mg./kg. and columns 5-7 the percent reversal of reserpine hypothermia at the same dose levels.

[5] = tested on: norepinephrine uptake by synaptosomes from rat brain; test: In vitro blockade of norepinephrine uptake by synaptosomes from rat brain; assay type: biochemical; details: norepinephrine 0.48 μM
Text: as §1

[6] = Table 5, dimethylamino compounds
[7] = Mus musculus, Table 5, dimethylamino compounds, 1 mg./kg., Pre-30 min., mice, read-out: Percent Antagonism Apomorphine
[8] = Mus musculus, Table 5, dimethylamino compounds, 3 mg./kg., Pre-30 min., mice, read-out: Percent Antagonism Apomorphine
[9] = Mus musculus, Table 5, dimethylamino compounds, 10 mg./kg., Pre-30 min., mice, read-out: Percent Antagonism Apomorphine

Row | Compound | Concentration that blocks 50% of amine uptake, Serotonin ([1]; Table 1, scaffold drawing 3) | Concentration that blocks 50% of amine uptake, Dopamine ([3]; Table 1, scaffold drawing 3) | Concentration that blocks 50% of amine uptake, Norepinephrine ([5]; Table 1, scaffold drawing 3) | inhibition in vivo at 1 mg/kg [2, 7] [%] | inhibition in vivo at 3 mg/kg [2, 8] [%] | inhibition in vivo at 10 mg/kg [2, 9] [%] | other results
1 | CN(C)CCC(Oc1ccc(F)cc1F)c1ccccc1 (stereo not drawn) [2,4-difluorophenyl] | .3 mcq./ml. | 10 mcq./ml. | .2 mcq./ml. |  |  |  | Concentration that blocks 50% of amine uptake, Serotonin ([1]; Table 2, scaffold drawing 4): 4.5 µg/mL; Percent Antagonism Apomorphine ([2]; Table 4, secondary amines, 1 mg./kg., Pre-30 min., mice): 53%; Percent Antagonism Apomorphine ([2]; Table 4, secondary amines, 3 mg./kg., Pre-30 min., mice): 64%; Percent Antagonism Apomorphine ([2]; Table 4, secondary amines, .3 mg./kg., Pre-30 min., mice): 20%; Percent Antagonism Apomorphine ([2]; Table 5, dimethylamino compounds, 1 mg./kg., Pre-30 min., mice): 26%; Percent Antagonism Apomorphine ([2]; Table 5, dimethylamino compounds, 3 mg./kg., Pre-30 min., mice): 55%; Percent Antagonism Apomorphine ([2]; Table 5, dimethylamino compounds, 10 mg./kg., Pre-30 min., mice): 98%; Concentration that blocks 50% of amine uptake, Dopamine ([3]; Table 2, scaffold drawing 4): > 100 µg/mL; inhibition in vivo at 1 mg/kg ([4]; Table 4, secondary amines): 17%; inhibition in vivo at 3 mg/kg ([4]; Table 4, secondary amines): 27%; inhibition in vivo at 0.3 mg/kg ([4]; Table 4, secondary amines): 13%; inhibition in vivo at 1 mg/kg [4, 6]: 11%; inhibition in vivo at 3 mg/kg [4, 6]: 12%; inhibition in vivo at 10 mg/kg [4, 6]: 30%; inhibition in vivo at 0.3 mg/kg [4, 6]: 23%; Concentration that blocks 50% of amine uptake, Norepinephrine ([5]; Table 2, scaffold drawing 4): > 100 µg/mL
2 | Cc1cc(F)ccc1OC(CCN(C)C)c1ccccc1.O=C(O)C(=O)O (stereo not drawn) [4-fluoro-o-tolyl, N,N-dimethyl 3-(p-fluoro-o-tolyloxy)-3-phenylpropylamine oxalate] | .6 mcq./ml. | 40 mcq./ml. | 2.5 mcq./ml. |  |  |  | 
3 | CN(C)CCCN1c2ccccc2CCc2ccccc21 [imipramine, reference compound] |  |  |  |  |  |  | Reduction of apomorphine hypothermia ([2]; 10 mg./kg. dose, measured 60 minutes after injection of the apomorphine): 100%; Activity in antagonism of apomorphine hypothermia [2]: active; Activity in reversal of reserpine hypothermia [4]: active
4 | CN(C)CCC(Oc1cccc(Cl)c1)c1ccccc1 (stereo not drawn) [m-chlorophenyl] |  |  |  | 0 | 13 | 66 | 
5 | COc1cccc(OC(CCN(C)C)c2ccccc2)c1.O=C(O)C(=O)O (stereo not drawn) [m-methoxyphenyl, N,N-dimethyl 3-phenyl-3-(m-methoxyphenoxy)propylamine oxalate] | .08 mcq./ml. | .5 mcq./ml. | .2 mcq./ml. |  |  |  | 
6 | Cc1cccc(OC(CCN(C)C)c2ccccc2)c1.O=C(O)C(=O)O (stereo not drawn) [m-tolyl, N,N-dimethyl 3-phenyl-3-(m-tolyloxy)propylamine oxalate] | .7 mcq./ml. | > 0 mcq./ml. | 12 mcq./ml. |  |  |  | 
7 | CN(C)CCC(Oc1cccc(C(F)(F)F)c1)c1ccccc1.O=C(O)C(=O)O (stereo not drawn) [m-trifluoromethylphenyl, N,N-dimethyl 3-phenyl-3-(m-trifluoromethylphenoxy) propylamine oxalate] | .18 mcq./ml. | > 100 mcq./ml. | 8 mcq./ml. |  |  |  | 
8 | CNCCC=C1c2ccccc2CCc2ccccc21 [nortriptyline, reference compound] |  |  |  |  |  |  | Activity in antagonism of apomorphine hypothermia [2]: active; Activity in reversal of reserpine hypothermia [4]: active
9 | COc1ccccc1OC(CCN(C)C)c1ccccc1 (stereo not drawn) [o-anisyl] |  |  |  | 11 | 30 | 61 | 
10 | CN(C)CCC(Oc1ccccc1Br)c1ccccc1.O=C(O)C(=O)O (stereo not drawn) [o-bromophenyl, N,N-dimethyl 3-(o-bromophenoxy)-3-phenylpropylamine oxalate] | .1 mcq./ml. | 5 mcq./ml. |  | 19 | 40 | 47 | inhibition in vivo at 3 mg/kg [4, 6]: 18%; inhibition in vivo at 10 mg/kg [4, 6]: 30%
11 | CN(C)CCC(Oc1ccccc1F)c1ccccc1 (stereo not drawn) [o-fluorophenyl] |  |  |  | -10 | 11 | 31 | 
12 | CN(C)CCC(Oc1ccccc1C(C)(C)C)c1ccccc1.O=C(O)C(=O)O (stereo not drawn) [o-t-butylphenyl, N,N-dimethyl 3-phenyl-3-(o-t-butylphenoxy)propylamine oxalate] | 40 mcq./ml. | > 100 mcq./ml. | 1.5 mcq./ml. |  |  |  | 
13 | Cc1ccccc1OC(CCN(C)C)c1ccccc1 (stereo not drawn) [o-tolyl] |  |  |  |  | 11 | 94 | 
14 | COc1ccc(OC(CCN(C)C)c2ccccc2)cc1 (stereo not drawn) [p-anisyl] |  |  |  |  |  | 25 | 
15 | CN(C)CCC(Oc1ccc(Cl)cc1)c1ccccc1 (stereo not drawn) [p-chlorophenyl] |  |  |  | 7 | 43 | 85 | inhibition in vivo at 1 mg/kg ([2]; Mus musculus, Table 4, secondary amines, 1 mg./kg., Pre-30 min., mice, read-out: Percent Antagonism Apomorphine): 29%; inhibition in vivo at 3 mg/kg ([2]; Mus musculus, Table 4, secondary amines, 3 mg./kg., Pre-30 min., mice, read-out: Percent Antagonism Apomorphine): 37%; inhibition in vivo at 0.3 mg/kg ([2]; Mus musculus, Table 4, secondary amines, .3 mg./kg., Pre-30 min., mice, read-out: Percent Antagonism Apomorphine): 32%
16 | CN(C)CCC(Oc1ccc(F)cc1)c1ccccc1 (stereo not drawn) [p-fluorophenyl] |  |  |  | 26 | 63 | 116 | inhibition in vivo at 1 mg/kg ([4]; Table 4, secondary amines): 39%; inhibition in vivo at 3 mg/kg ([4]; Table 4, secondary amines): 32%; inhibition in vivo at 0.3 mg/kg ([4]; Table 4, secondary amines): 7%; inhibition in vivo at 1 mg/kg [4, 6]: 10%; inhibition in vivo at 3 mg/kg [4, 6]: 24%; inhibition in vivo at 10 mg/kg [4, 6]: 49%; inhibition in vivo at 0.3 mg/kg [4, 6]: 14%
17 | CN(C)CCC(Oc1ccc(C(F)(F)F)cc1)c1ccccc1 (stereo not drawn) [p-trifluoromethylphenyl] |  |  |  |  |  | 24 | 
18 | CN(C)CCC(Oc1ccc2ccccc2c1)c1ccccc1.O=C(O)C(=O)O (stereo not drawn) [β-naphthyl, N,N-dimethyl 3-(β-naphthyloxy)-3-phenylpropylamine oxalate] | 1 mcq./ml. | 100 mcq./ml. | > 100 mcq./ml. |  |  |  | 
